According to US20240342148A1, “METHODS OF TREATING FACIOSCAPULOHUMERAL MUSCULAR DYSTROPHY WITH LOSMAPIMOD” (Fulcrum Therapeutics, Inc., priority 2021, published 2024):

Columns and labels:
[1] = Plasma losmapimod concentrations (PK), Phase 2b RCT; type: in vivo, human; details: 15 mg orally BID
Procedure: Blood samples for PK assessment (plasma losmapimod concentrations) were collected at D1, Wk4, Wk16, and Wk36 at the following time points: immediately pre-dose and 4 hours (±30 minutes) after administration of the study dose (approximate Cmax). PK samples were also taken, when feasible, after dosing during the Wk12, Wk24, and Wk48 visits, preferably ≥1 hour after dosing.
Plasma and muscle losmapimod concentrations were measured by 2 validated bioanalytical high-performance liquid chromatography methods by PPD, USA (PPD 2019).

subjects with FSHD [2] = assay: WB-MSK MRI composite scores (MFI, MFF, LMV); type: in vivo, human
Source text: The images were acquired in five different sections. The rotator cuff was imaged using a neck coil, torso and legs using anterior surface coils and integrated table coils, and the upper extremities using a surface and table coils, after the patient was repositioned such that the extremity was in the center of the MRI scanner. T1-weighted Dixon-images of 18 muscles bilaterally, 36 total, were acquired and water and fat images were reconstructed using the scanner built-in phase-sensitive reconstruction (Siemens: Dixon-Vibe; Philips: mDixon). Three different measures were calculated for each muscle. The muscle fat fraction (MFF) is the total fat fraction inside the muscle fascia. The muscle fat infiltration (MFI) represents the diffuse fat infiltration in the muscle tissue and is defined as the fat fraction of the muscle voxels that contain <50% fat. Therefore, MFI measures the MFF for muscle tissue that is not end-stage. The lean muscle volume (LMV) represents the total amount of functional muscle tissue and is measured by removing all fat within the muscle volume. Each muscle was categorized based on these measures and supported by prior literature as normal appearing (Category A, MFI<0.10; MFF<0.50), intermediate (Category B, MFI≥0.10; MFF<0.50), and late-stage (Category C, MFF≥0.50). Two composite scores were used to assess the treatment efficacy and correlation with relevant clinical outcome assessments. The treatment efficacy composite score includes only those muscles identified as normal appearing or at high risk for progression (Category A or B muscles) at baseline that were measurable at both observation timepoints, having no signal quality issues. The regional composite scores for correlations are composed of all muscles that were involved in the specific functional assessment of interest regardless of their categorization (FIG. 2). The scores were derived by scientists at the MRI Service Provider (AMRA Medical Inc.) in a blinded fashion, with no access to treatment assignment information. Measurements for muscles with major quality issues, (i.e., muscles with missing values), were imputed. Late-stage muscles were not included in the analysis as these contain high fat fraction which makes them challenging to quantify accurately, and likely are already not functional. A mixed-effects model for repeated measures (MMRM) was used to analyze the change from baseline in each composite MRI score (MFFtotal, LMVtotal, and MFItotal), with repeat number category, treatment group, visit, and treatment-by-visit interactions as fixed effects and baseline value of the parameter as a covariate. […]

subjects with FSHD [3] = assay: Reachable workspace, Open Label Study, exploratory annualized analysis; type: in vivo, human; details: with and without weights
Source text: In the Open Label Study, reachable workspace (RWS) with and without weights has also been evaluated. FIG. 27 provides exploratory annualized percentage changes of RWS from baseline of patients participating in the study.

subjects with FSHD [4] = assay: Hand-held dynamometry, maximum voluntary isometric contraction (MVICT); type: in vivo, human
Procedure: Quantitative isometric dynamometry strength assessments were performed at all visits, except for Week 16. The MicroFET2 hand-held dynamometer was used to measure strength in the bilateral shoulders, elbow flexors and extensors, and ankle dorsiflexors. The Jamar Plus Digital Hand Dynamometer was used to measure bilateral grip strengths. Standard physical therapy techniques were used. Assessment of maximum voluntary isometric contraction (MVICT) was conducted with a hand-held dynamometer.

subjects with FSHD [5] = assay: FSHD health index (FSHD-HI); parameters: species or system human; details: in vivo
Procedure: The FSHD health index questionnaire was administered at all visits except for Wk16. This is a FSHD-specific patient-reported measure of disease burden on activities of daily living, quality of life, and symptom prevalence and severity. It consists of a questionnaire with 116 items developed from qualitative interviews of patients followed by a national cross-sectional validation study. The measure consists of 14 subscales that measure a patient's perception of their ambulation and mobility, hand function, shoulder and arm function, emotional health, back/chest/abdomen strength, fatigue, pain, eating function, ability to do activities, communication ability, satisfaction in social situations, performance in social situations, body image and cognition. Scoring was performed centrally by the developer.

subjects with FSHD1 = assay: Muscle ultrasound echogenicity, open-label study in FSHD1; type: in vivo, human
Procedure: Fourteen subjects age 18 to 65 years with genetically confirmed FSHD1, clinical severity score of 2 to 4 (range 0-5) and MRI-eligible skeletal muscles for needle biopsy received open-label 15 mg twice daily losmapimod for 52 weeks with the primary objective of safety. Assessments included safety, MRI, muscle ultrasound (US), clinical outcomes, and PROs. US was performed on 7 muscles bilaterally using a standardized protocol. US echointensity was expressed as a z-score relative to matched healthy controls, with abnormal being defined as >2.

patients with FSHD1 = assay: Wearable sensor (Actimyo) physical activity, open label study; type: in vivo, human; details: over 1 year treatment; Mild or Upper group compared to Lower or Both group
Procedure: This study evaluated feasibility to monitor daily activity and assess functional outcomes using wearable sensor devices in an open label study (OLS) of losmapimod in facioscapulohumeral muscular dystrophy (FSHD). 14 patients with FSHD1 received 15 mg losmapimod twice per day for a 52 week open label treatment period.
Feasibility was measured by the reliability of the data over time and amount of background noise. The secondary objective was patients' compliance with using the wearable device.
Upper limb and lower limb mobility were evaluated with “Actimyo” made by Sysnav. Actimyo quantifies movements of patients with neuromuscular disorders such as Duchenne muscular dystrophy (DMD), Spinal amyotrophy (SMA), Parkinson's and records activity based on magneto-inertial navigation. Raw data from the sensors are loaded on to the internal memory of the docking station/charging unit, and transmitted daily via an internet connection to a remote storage platform. Participants are provided with two watch like sensors to measure movements: On the ankle for lower extremity movements like gait; and On the wrist for upper extremity movements like mobility. Two kinds of movements were evaluated: Free living movement, which was recorded by wearing two devices all day (12-16 hours); and Imposed movements (2 times per day), which were a set of movements evaluated twice daily.

[6] = open-label 15 mg twice daily, 52 weeks

## Cc1c(F)cc(C(=O)NC2CC2)cc1-c1ccc(C(=O)NCC(C)(C)C)cn1 [losmapimod, 6-(5-cyclopropylcarbamoyl-3-fluoro-2-methyl-phenyl)-N-(2,2-dimethylpropyl-)-nicotinamide]
[1]; pre-dose
  Plasma concentrations of losmapimod pre-dose: 25.2 to 34.4 ng/mL
[1]; human, plasma, po, 4 h post-dose, read-out: Plasma concentrations of losmapimod 4 h post-dose (approximate Cmax)
  Cmax at 4 h: 66.4 to 91.8 ng/mL
Subjects with FSHD [2]; A muscles, compared to placebo
  MFI or MFF in normal appearing muscles at baseline (A muscles), post-hoc: little or no accumulation of fat
Subjects with FSHD [2]; B muscles
  LMV vs placebo: no difference
  MFF fat replacement vs placebo: nonsignificant reduction
Subjects with FSHD [2]; muscles at high risk of progression (B muscles), p=0.01
  MFI efficacy composite vs placebo: significantly less fat infiltration
Subjects with FSHD [3]
  Annualized RWS increase from baseline, Q1 and Q3 (largest increases): 7-17%
Subjects with FSHD [4]; Wk48, post-hoc
  MVICT strength change, ankle dorsiflexors, left ankle: 27.17%
  MVICT strength change, ankle dorsiflexors, right ankle: 12.72%
  MVICT strength change, shoulder abductors, non-dominant shoulder: 17.85%
Subjects with FSHD [4]; Wk48, post-hoc, ns
  MVICT strength change, shoulder abductors, dominant shoulder: −3.79%
Subjects with FSHD [4]; Wk48, post-hoc, p<0.01
  MVICT difference vs placebo, non-dominant shoulder: 34.89
Subjects with FSHD [4]; Wk48, post-hoc, p<0.05
  MVICT difference vs placebo, right ankle: 38.39
Subjects with FSHD [4]; Wk48, post-hoc, p=0.11
  MVICT difference vs placebo, left ankle: 37.37
Subjects with FSHD [4]; vs placebo
  Average or MVICT in other muscle groups (bilateral hand grip, elbow flexors or extensors): No difference
Subjects with FSHD [5]
  FSHD-HI vs placebo: no difference
Subjects with FSHD1; [6]
  Mean (SD) change from baseline in echogenicity of all muscles: -0.17 (0.9) z-score
  Mean (SD) change from baseline in echogenicity, lower extremities: −0.13 (1.0) z-score
  Mean (SD) change from baseline in echogenicity, upper extremity muscles: −0.32 (0.9) z-score
Subjects with FSHD1; z-score classes <2, 2-4, 4-6, >6
  Distribution of echogenicity z-scores of muscles at baseline versus the last visit: stayed the same or decreased
Patients with FSHD1
  Physical function as measured by gait velocity: tends to increase
